{"source": "ChEMBL document CHEMBL1133142", "about": "“Synthesis of dolichyl phosphate derivatives with fluorescent label at the omega-end of the chain, new tools to study protein glycosylation” (Bioorg Med Chem Lett, 2000)", "key": {"Saccharomyces cerevisiae [1]": {"tested_on": "Saccharomyces cerevisiae", "assay": "Tested for the kinetic parameter relative Kcat on Dolichyl phosphate mannose synthase"}, "Saccharomyces cerevisiae [2]": {"tested_on": "Saccharomyces cerevisiae", "assay": "Tested for the kinetic constant (Km) against the enzyme Dolichyl phosphate mannose synthase"}}, "data": [{"smiles": "C/C(=C\\CC/C(C)=C/CC/C(C)=C/CC/C(C)=C/CC/C(C)=C/CC/C(C)=C/CC/C(C)=C/CCC(C)CCOP(=O)(O)O)CC/C=C(\\C)CC/C=C(\\C)CC/C=C(\\C)CC/C=C(\\C)CC/C=C(\\C)CC/C=C(\\C)CC/C=C(\\C)CCCNc1cccc2ccccc12", "note": "(configuration not stated)", "values": [{"measurement": "k cat", "setting": "Saccharomyces cerevisiae [1]", "value": 1.27}, {"measurement": "Km", "setting": "Saccharomyces cerevisiae [2]", "value": 11.7, "unit": "µM"}]}]}
